Test results taken from patent US9079897B2, “Imidazo-pyridine derivatives as activin-like receptor kinase (ALK4 or ALK5) inhibitors” (NOVARTIS AG, priority 2008, dated 2015).

T1: human ALK5 (kinase domain, ALK5 T204D) (Homo sapiens, UniProt P36897, T204D)
T1 construct: The kinase domain of human ALK5 (amino acids 200-503); made in house; host or cells: insect cells (baculovirus expression)
T1 sequence (P36897 200-503 T204D): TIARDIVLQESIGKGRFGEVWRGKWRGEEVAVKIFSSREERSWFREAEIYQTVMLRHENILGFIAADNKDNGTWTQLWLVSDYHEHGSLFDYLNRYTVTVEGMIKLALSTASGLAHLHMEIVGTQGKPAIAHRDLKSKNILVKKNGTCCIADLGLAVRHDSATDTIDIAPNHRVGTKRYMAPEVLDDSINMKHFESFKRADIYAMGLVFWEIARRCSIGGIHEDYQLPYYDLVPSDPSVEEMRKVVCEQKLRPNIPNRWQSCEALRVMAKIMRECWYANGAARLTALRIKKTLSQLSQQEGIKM


Legend:
[1] = target: T1, human ALK5 (kinase domain, ALK5 T204D); test: ALK5 kinase activity, [33P] phosphate incorporation into casein; assay type: biochemical; conditions: casein substrate
Protocol: The kinase activity of ALK5 is assessed by measuring radiolabelled phosphate [33P] incorporation in to the generic substrate, casein. The kinase domain of human ALK5 (amino acids 200-503) is fused to an N-terminal histidine tag. The kinase activity of ALK5 is rendered constitutive via point mutation at amino acid 204 (threonine to aspartate modification, ALK5 T204D) and the kinase construct is engineered to be expressed from a baculovirus expression construct in insect cells. The purified, recombinantly-expressed histidine-tagged ALK5 T204D protein is dissolved at 5.4 mg/ml in 50 mM Tris-HCl pH 8.0, 150 mM NaCl, 5 mM DTT. ALK5 T204D is dissolved to 2.5 μg/ml in assay buffer (Assay buffer: 20 mM Tris-HCl pH 7.4, 10 mM MgCl2, 2 mM MnCl2) on the day of use.
Test compounds and reference compounds are dissolved in assay buffer without DTT containing 5% (v/v) DMSO. Stock solutions of test and reference compounds are diluted in assay buffer with DTT (1.25 mM) containing 4.5% (v/v) DMSO. 10 μl of test or reference compound are added to the appropriate wells of 96 well U-bottomed plate. Total enzyme activity is determined by measuring ALK5 T204D activity in the absence of ALK5 kinase inhibitor reference compounds. Non-specific binding (NSB) is determined by measuring the activity of ALK5 T204D in the presence of ALK5 kinase inhibitor reference compounds. 10 μl of dephosphorylated casein stock solution (dephosphorylated casein is dissolved in ddH2O at 20 mg/ml) is added per well (200 μg/well final assay concentration). 20 μl of ALK5 T204D (2.5 μg/ml solution) is added per well (50 ng/well final assay concentration). The plates are left to incubate at room temperature for 10 minutes.
10 μl of ATP mix is added to the well to initiate the reaction (0.66 nM [^33P]ATP/1 μM unlabelled ATP/well final assay concentration). The ATP mix is prepared as follows, unlabelled ATP (3 mM) is dissolved in ddH2O and pH adjusted to 7.4. The stock concentration of [^33P]ATP is 10 μCi/μl. The appropriate volume of [^33P]ATP is added to unlabelled ATP solution such that the final assay concentration per well is 0.1 μCi. Following addition of the ATP mix, the plates are incubated at room temperature for 50 minutes. The kinase reaction is terminated by the addition of 50 μL Stop Buffer (20 mM Tris-HCl pH 7.4, 10 mM EDTA).
75 μl/well from the reaction plate is transferred to a Multiscreen-IP plate (MultiScreen-IP plates are prepared by added 50 μL of 70% (v/v) ethanol per well and incubated for 5 minutes at room temperature. The ethanol is removed by aspiration via a MultiScreen HTS Vaccum Manifold unit (Millipore, Cat no: MSVMHT500). The plates are washed twice by adding 200 μl/well ddH2O). The MultiScreen-IP plate is incubated at room temperature for 30 minutes to allowing binding of casein to the plate. The MultiScreen-IP plates are washed three times by adding 200 μl/well 100 mM phosphoric acid solution and the gasket is carefully removed from the back of the MultiScreen-IP plate and the plate dried in the oven for 30 minutes. The MultiScreen-IP plate is backsealed, 50 μL of MICROSCINT™20 is added, then the plates are topsealed and radiolabelled casein detected and quantified on a TOPCOUNT™ plate-reader using the ^33P scintillation protocol.

[2] = system: dimethylnitrosamine induced liver fibrosis; conditions: rat, cited from earlier work
[3] = system: bleomycin-induced pulmonary fibrosis; conditions: bleomycin-treated rats; cited from earlier work
[4] = given therapeutically, dimethylnitrosamine induced liver fibrosis

Row | Molecule | IC50 [1] | other results
1 | O[C@H]1CCC[C@H](Nc2ccc3ncn(-c4ccnc(-c5ccc(F)cc5)c4)c3n2)C1 (racemic) [Example 1.9, (1SR, 3SR)-3-{3-[2-(4-Fluorophenyl)-pyridin-4-yl)-3H-imidazo[4,5-b]pyridin-5-ylamino}-cyclohexanol] | 318 nM | 
2 | c1ccc(-c2cc(-c3cn[nH]c3-c3ccccn3)ccn2)cc1 [GW6604] |  | side effects ([2]; 3 weeks treatment): no obvious side effects; inhibition of extracellular matrix deposition [2, 4]: 60%; prevention of death rate [2, 4]: 40%
3 | follistatin: an antagonist of activin signalling (protein, UniProt P19883 30-344, looked up) Follistatin: GNCWLRQAKNGRCQVLYKTELSKEECCSTGRLSTSWTEEDVNDNTLFKWMIFNGGAPNCIPCKETCENVDCGPGKKCRMNKKNKPRCVCAPDCSNITWKGPVCGLDGKTYRNECALLKARCKEQPELEVQYQGRCKKTCRDVFCPGSSTCVVDQTNNAYCVTCNRICPEPASSEQYLCGNDGVTYSSACHLRKATCLLGRSIGLAYEGKCIKAKSCEDIQCTGGKKCLWDFKVGRGRCSLCDELCPDSKSDEPVCASDNATYASECAMKEAACSSGVLLEVKHSGSCNSISEDTEEEEEDEDQDYSFPISSILEW |  | lung fibrosis [3]: attenuated lung fibrosis; number of macrophages and neutrophils in bronchoalveolar lavage [3]: significantly reduced

Further lines, with some results ahead:

Row | IC50 [1] | Molecule | other results
4 | 6 nM | O[C@H]1CCC[C@@H](Nc2ccc3ncn(-c4ccnc(-c5ccoc5)c4)c3n2)C1 (racemic) [Example 1.5, (1SR, 3RS)-3-[3-(2-Furan-3-yl-pyridin-4-yl)-3H-imidazo[4,5-b]pyridin-5-ylamino]-cyclohexanol] | 
5 | 38 nM | Cc1ccn(-c2cc(-n3cnc4ccc(NC5CCCC(O)C5)nc43)ccn2)n1 (stereo not drawn) [Example 1.13, (1SR,3RS)-3-{3-[2-(3-Methyl-pyrazol-1-yl)pyridine-4-yl]-3H-imidzo[4,5-b]pyridin-5-ylamino}-cyclohexanol] | 
6 | 13 nM | OC1CCC(Nc2ccc3ncn(-c4ccnc(-c5ccoc5)c4)c3n2)CC1 (stereo not shown) [Example 1.1, 4-[3-(2-Furan-3-yl-pyridin-4-yl)-3H-imidazo[4,5-b]pyridin-5-ylamino]-cyclohexanol] | 
7 | 56 nM | O[C@H]1CCC[C@@H](Nc2ccc3ncn(-c4ccnc(-n5cccn5)c4)c3n2)C1 (racemic) [Example 1.17, (1SR,3RS)-3-[3-(2-Pyrazol-1-yl-pyridine-4-yl)-3H-imidazo[4,5-b]pyridin-5-ylamino]-cyclohexanol] | 
